From EP3050567B1, “COMPOUND FOR ACTIVATING AMPK AND USES THEREOF” (Energenesis Biomedical Co., Ltd., priority 2013, dated 2015)

Columns and labels:
[1] = tested on: AMPK; assay: AMPK activation assay (phospho-AMPK Thr172 western blot) in HT29 cells; format: cell-based, human; details: 30 min
Description: Effects of adenine on AMPK activation were evaluated based on the phosphorylation of AMPK protein upon adenine treatment. Mouse muscle cell C2C12, mouse fibroblast 3T3, human liver carcinoma cell Hep G2, human breast adenocarcinoma cell line MCF7 and human colon adenocarcinoma grade II cell line HT29, human umbilical vein endothelial cell HUVEC, Human acute monocytic leukemiacell THP1, human macrophage cell U937, murine microglia cell BV-2, and mouse neuroblastoma cell Neuro2A and dermal papilla cell were cultured in high-glucose Dulbecco's modified Eagle's medium (DMEM) containing 10% fetal bovine serum (FBS), 4 mM L-glutamine, 2 mM sodium pyruvate and 1% penicillin/streptomycin (Invitrogen GibcoBRL, Carlsbad, Calif., USA) at 37°C, under 5% CO2. Cells were plated at 3 × 10^5 per well in 6-well plates. Twenty-four hours after plating, adenine was added to the culture media as indicated. After 30 min cells were lysed and subject to western blot analysis. Equal amount of protein from each sample was separated by SDS-PAGE and then electroblotted on to PVDF membranes. Membranes were blocked with 3% BSA in PBS for 60 min and incubated with an anti-phospho-AMPK (Thr172) antibody (1:2,000, Cell signaling) or an anti-AMPK antibody (1:2,000, Cell signaling) at 4°C for 16 h followed by the corresponding secondary antibody for 1 h at room temperature (RT). Immunoreactive bands were detected by enhanced chemiluminescence and recorded using Kodak film. The detected signals were scanned and then quantified using TotalLab Quant software (TotalLab).

[2] = tested on: IL-6; assay: LPS-induced inflammatory response in THP1 macrophages, secreted IL-6 (ELISA); format: cell-based, human; details: 50 ng LPS 6 hr
Description: (§1) Effects of adenine on inflammatory response were evaluated in human THP1 macrophage by examining protein level of intracellular COX-2 and secreted TNFα, IL-1β and IL-6. Differentiation of THP1 monocytes into macrophages was induced by 50 nM PMA for 24 hr. THP1 macrophages were further stimulated by 50 ng LPS for 6 hr in the presence of 10-600 µM of adenine or vehicle followed by cell lysis and western blot analysis. Equal amounts of protein were separated by SDS-PAGE and then electroblotted on to PVDF membranes. Membranes were blocked with 3% BSA in PBS for 60 min and incubated with an anti-COX-2 antibody (1:1,000, Cell signaling), an anti-actin antibody (1:5,000, Cell signaling) at 4° C for 16 h followed by the corresponding secondary antibody for 1 h at room temperature (RT). Immunoreactive bands were detected by enhanced chemiluminescence and recorded using Kodak film. The detected signals were scanned and then quantified using TotalLab Quant software (TotalLab). The secreted TNFα, IL-1β and IL-6 were analyzed by enzyme-linked immunosorbent assays.

[3] = tested on: COX-2; assay: LPS-induced inflammatory response in THP1 macrophages, intracellular COX-2 (western blot); format: cell-based, human; details: 50 ng LPS 6 hr
Description: as §1

[4] = tested on: Aβ infusion mice; assay: Aβ-induced Alzheimer's disease model mice, Morris water maze assay; format: in vivo, C57BL/6J mice; details: AD mice, daily IP adenine 0.01, 0.1, 5 or 30 mg/kg for 4 weeks, vs control AD mice
Description: Aβ25-35 was purchased from Sigma-Aldrich (St. Louis, Missouri). The peptides were dissolved in distilled saline and aggregated by incubation at 37°C for 7 days before injection. C57BL/6J mice were maintained at 22° C under a 12-h light/dark cycle. Adult mice were anesthetized by ketamine (500 mg/kg) and xylazine (100 mg/kg) and placed in a stereotaxic frame. Five nmol of the aggregated Aβ25-35 were injected into the lateral ventricle using a 10 µl Hamilton syringe. The target anterior-posterior (AP), medial-lateral (ML) and dorsoventral coordinates were -0.5 mm, ±1 mm and -2.5 mm relative to the bregma. To evaluate the effect of adenine on neurodegenerative disease, Aβ infusion mice were daily intraperitoneally injected with 0.01, 0.1, 5 or 30 mg/kg bodyweight of adenine or vehicle for 4 weeks. The cognitive functions of these mice were analyzed by using Morris water maze assay after 4 weeks injection. The water maze was performed in a circular pool filled with water and a platform was submerged below the water's surface in the target quadrant for hidden platform test. During the 5-day hidden platform test, mice were randomly placed into starting points of the pool in each daily trial (6 trials per day). […] Mice were allowed to swim in the maze for 60 s and recorded by a video camera. The latency to find the platform and swim paths was analyzed by software.

[5] = tested on: MCF7; assay: Cancer cell growth inhibition assay, MCF7; format: cell-based; details: Homo sapiens; MCF7 cell proliferation, 72 h, cell counting
Description: Human liver hepatocellular carcinoma cell line Hep G2, human breast adenocarcinoma cell line MCF7 and human colon adenocarcinoma grade II cell line HT29 were used to evaluate the effects of adenine on cell proliferation. Those cell lines were obtained from ATCC and were cultured in high-glucose Dulbecco's modified Eagle's medium (DMEM) containing 10% fetal bovine serum (FBS), 4 mM L-glutamine, 2 mM sodium pyruvate and 1% penicillin/streptomycin (Invitrogen GibcoBRL, Carlsbad, Calif., USA) at 37°C under 5% CO2. Cells were plated at 1 × 10^5 per well (6-well plate). Twenty-four hours after plating, cells were treated with indicated concentration of adenine for 72 h and then followed by cell counting. Cells were detached using trypsin-EDTA solution and stained with trypan blue. The living cells were counted using hemocytometer.

[6] = tested on: Hep G2 cells; assay: Tumor growth assay, Hep G2 implanted subcutaneously; format: in vivo; details: Hep G2 implanted NOD-SCID mice, daily IP adenine 5, 20 or 50 mg/kg, 14 days post implantation, vs control mice
Description: Human liver hepatocellular carcinoma cell line Hep G2 were cultured in high-glucose Dulbecco's modified Eagle's medium (DMEM) containing 10% fetal bovine serum (FBS), 4 mM L-glutamine, 2 mM sodium pyruvate and 1% penicillin/streptomycin (Invitrogen GibcoBRL, Carlsbad, Calif., USA) at 37°C under 5% CO2. For tumor implantation, 5 × 10^6 Hep G2 cells were injected subcutaneously into 8-week-old male nonobese diabetic-severe combined immunodeficiency (NOD-SCID) mice. After implantation, the mice were daily intraperitoneally injected with 5, 20 or 50 mg/kg body weight of adenine and the tumor size was monitored every 3 days.

Nc1ncnc2nc[nH]c12 [Adenine, adenine]
AMPK activation (fold to control) ([1]; adenine 1 microM): 1.1 fold to control | AMPK activation (fold to control) ([1]; adenine 10 microM): 1.7 fold to control | AMPK activation (fold to control) ([1]; adenine 100 microM): 2.9 fold to control | AMPK activation (fold to control) ([1]; adenine 200 microM): 3.4 fold to control | AMPK activation (fold to control) ([1]; adenine 600 microM): 3.8 fold to control | IL-6 (% to control) ([2]; adenine 10 microM): 88±6.3 % to control | IL-6 (% to control) ([2]; adenine 100 microM): 21±7.8 % to control | IL-6 (% to control) ([2]; adenine 600 microM): 14±6.2 % to control | COX-2 (% to control) ([3]; adenine 10 microM): 81±4.4 % to control | COX-2 (% to control) ([3]; adenine 100 microM): 59±3.5 % to control | COX-2 (% to control) ([3]; adenine 600 microM): 38±5.3 % to control | time to find platform (hidden platform test) ([4]; dose-dependent): significantly shorter time | percentage time in target quadrant (probe assay) [4]: higher percentage time | IC50 [5]: 538 µM | growth of tumor [6]: significantly retarded
